Legend:
[1] = tested on: HuCCA-1; conditions: according to Kittakoop et al.; cited from earlier work
[2] = tested on: A549; conditions: according to Kittakoop et al.; cited from earlier work
[3] = tested on: HepG2; conditions: according to Kittakoop et al.; cited from earlier work
[4] = biological target: human ligase I (Homo sapiens, UniProt P18858); test: Ligation assay, DNA ligase I; format: biochemical; conditions: screening, FIG. 4 and FIG. 7
Excerpt: The ligation assay was done strictly following the assay protocol described in Xi Chen et. al, Cancer Res 2008; 68(9):3169-3177. The DNA molecules 52 mer (5′-3′), 28-mer (5′-3′) and 34-mer (5′-3′) were used to construct a double stranded nicked substrate for the ligase enzyme (FIG. 4). The 34-mer oligo was labelled with 32P-AMP to form a substrate for ligase and to form a ligase-AMP intermediate. During ligation, the ligase would transfer the AMP to the nick forming a phosphodiester bond and seal the nick. The ligated DNA molecule would be larger in size and run higher up on a 7% Urea-containing denaturing acrylamide gel. If an inhibitor is added to the reaction mixture prior to the addition of ligase, this would lead to an inhibition of ligation and a corresponding loss of labelled ligated product in the gel. We would then be able to calculate the percentage of inhibition of ligation by estimating the amount of ligated product in the lane with no inhibitor and comparing it with the lanes containing different inhibitor molecules or with the same inhibitor molecule at different concentrations.

[5] = tested on: MOLT-3; conditions: according to Kittakoop et al.; cited from earlier work

Sequence of human ligase I (P18858 whole entry): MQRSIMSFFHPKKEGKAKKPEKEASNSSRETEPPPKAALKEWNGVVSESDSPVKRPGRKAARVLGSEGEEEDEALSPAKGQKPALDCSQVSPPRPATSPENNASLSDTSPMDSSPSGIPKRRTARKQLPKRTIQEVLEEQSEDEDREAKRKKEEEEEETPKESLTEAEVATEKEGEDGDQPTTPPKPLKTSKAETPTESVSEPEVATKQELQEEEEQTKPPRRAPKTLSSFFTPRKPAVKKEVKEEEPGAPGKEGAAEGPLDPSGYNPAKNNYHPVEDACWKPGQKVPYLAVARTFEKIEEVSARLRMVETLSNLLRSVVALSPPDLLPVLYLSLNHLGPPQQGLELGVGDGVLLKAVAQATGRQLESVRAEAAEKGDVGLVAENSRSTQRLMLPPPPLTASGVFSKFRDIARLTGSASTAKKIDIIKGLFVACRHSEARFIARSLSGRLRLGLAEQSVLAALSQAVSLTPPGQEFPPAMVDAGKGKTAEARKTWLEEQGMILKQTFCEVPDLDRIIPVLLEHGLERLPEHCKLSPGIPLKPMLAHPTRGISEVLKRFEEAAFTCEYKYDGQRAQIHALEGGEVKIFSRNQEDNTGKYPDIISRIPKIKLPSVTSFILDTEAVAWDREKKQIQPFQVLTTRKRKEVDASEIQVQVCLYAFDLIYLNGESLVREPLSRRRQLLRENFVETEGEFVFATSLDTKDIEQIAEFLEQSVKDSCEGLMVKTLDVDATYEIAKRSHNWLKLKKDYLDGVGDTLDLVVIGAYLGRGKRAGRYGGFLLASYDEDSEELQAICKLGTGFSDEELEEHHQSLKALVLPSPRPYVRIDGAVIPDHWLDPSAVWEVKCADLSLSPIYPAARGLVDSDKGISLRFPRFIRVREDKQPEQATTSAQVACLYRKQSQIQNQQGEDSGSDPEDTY

In the case of `CC(=O)NC1CCC(=O)N(CC(=O)c2ccccc2)C1=O` (centres unmarked) [Cordiarimide A], the “cytotoxicity toward HuCCA-1” value [1] is listed as “inactive”, the “cytotoxicity toward A549” value [2] is listed as “inactive” and the “cytotoxicity toward HepG2” value [3] is listed as “inactive”. The “DNA ligase I / ligation inhibition (in words)” value [4] was “did not show any ligation inhibition” and the IC50 [5] was 145 µM.
